In patent publication US20180312463A1 (The Procter & Gamble Company, priority 2015, published 2018):
Counter-ions that a name gives are not always drawn.

Biological target: human TRPM8 (UniProt Q8R4D5)
Experiment: TRPM8 Protocol-FLIPR Assay (EC50 analysis of sensate analogs using TRPM8 activation)
Type: cell-based
Settings: HEK-293 cells stably transfected with human TRPM8, intracellular Ca2+ by Fluo-4 AM fluorescence
Description: (§1) The term “TRPM8 agonist”, as used herein, refers to any compound, which when added to a TRPM8 receptor, according to the FLIPR method, as discussed herein, produces any increase in fluorescence over background.
(§2) TRPM8 Protocol-FLIPR Assay
(§3) To determine whether TRPM8 is activated, the intracellular calcium ion (Ca^2+) level was measured from transfected cells with the TRPM8 receptor sequence (SEQ ID NO:). […] Trypsin was inactivated by addition of 8 ml growth medium. Cells were transferred to a 50 ml tube and centrifuged at 850 rpm for 3 minutes to remove medium. After centrifugation, a pellet of cells was formed in the bottom of the tube separating them from the supernatant solution. […] Fluo-4 AM is a fluorescent dye used for quantifying cellular Ca^2+ concentrations in the 100 nM to 1 microM range. At the end of 30 minutes, 45 ml of assay buffer (1× HBSS (Hank's Balanced Salt Solution), 20 mM HEPES (4-(2-Hydroxyethyl)-1-piperazineethanesulfonic acid)) was added to wash cells and the resulting mixture was then centrifuged at 850 rpm for 3 minutes to remove excess buffer and Fluo-4 AM calcium indicator.
(§4) The pelleted cells were re-suspended in 10 ml assay buffer and 90 μl aliquots (50,000 cells) per well delivered to a 96-well assay plate containing 10 μl of test compounds (1 mM in assay buffer, final concentration 100 μM) or buffer control and incubated at room temperature for 30 minutes. After 30 minutes, a plate was placed into a fluorometric imaging plate reader (FLIPR384 from Molecular Devices, Sunnyvale, Calif.) and basal fluorescence recorded (excitation wave length 488 nm and emission wave length 510 nm). Then 20 μl of 100 mM of TRPM8 agonist WS5 coolant in the assay buffer was added and fluorescence recorded. For determining the direct effect of test compounds on TRPM8, fluorescence was measured immediately after addition of each compound (TABLE 7).

Compound	EC50	TRPM8 (EC50 values)
CC(C)[C@@H]1CC[C@@H](C)C[C@H]1C(=O)NC[C@@H](N)c1ccccc1Cl [Example 34, hydrochloride]	770 nM	–
CC(C)[C@@H]1CC[C@@H](C)C[C@H]1C(=O)NC[C@H](NC(=O)OC(C)(C)C)c1ccccc1 [Molecule 52]	–	Too high to measure

More lines, now with the values ahead:

EC50	TRPM8 (EC50 values)	Compound
–	Too high to measure	CC(C)[C@@H]1CC[C@@H](C)C[C@H]1C(=O)NCCNC(=O)[C@@H]1C[C@H](C)CC[C@H]1C(C)C [Molecule 53]
–	Too high to measure	CCCCCCCCCCCCCCCC(=O)N[C@H](CNC(=O)[C@@H]1C[C@H](C)CC[C@H]1C(C)C)c1ccccc1 [Molecule 54]
–	Too high to measure	CC(C)[C@@H]1CC[C@@H](C)C[C@H]1C(=O)NC[C@@H](NC(=O)[C@@H](N)Cc1ccccc1)c1ccccc1 [Molecule 55]
–	Too high to measure	CC(C)[C@@H]1CC[C@@H](C)C[C@H]1C(=O)NCCN(CCN)CCN.Cl.Cl [Molecule 56]
–	Too high to measure	CC(C)[C@@H]1CC[C@@H](C)C[C@H]1C(=O)NC[C@H](NC(=O)[C@@H](C)NC(=O)OC(C)(C)C)c1ccccc1 [Molecule 57]
–	Too high to measure	CC(C)[C@@H]1CC[C@@H](C)C[C@H]1C(=O)NC[C@@H](NC(=O)OC(C)(C)C)c1ccccc1 [Molecule 58]
–	Too high to measure	CC(C)[C@@H]1CC[C@@H](C)C[C@H]1C(=O)NC[C@@H](NC(=O)[C@@H](C)NC(=O)OC(C)(C)C)c1ccccc1 [Molecule 59]

Biological target: human TRPM8
Experiment: as above
Type: cell-based
Settings: HEK-293 cells stably transfected with human TRPM8, intracellular Ca2+ by Fluo-4 AM fluorescence
Description: as §1, §2, §3, §4

EC50	Compound
20 nM	CC(C)[C@@H]1CC[C@@H](C)C[C@H]1C(=O)NC[C@@H](NC(=O)CN)c1ccccc1Cl
28.3 nM	CC(C)[C@@H]1CC[C@@H](C)C[C@H]1C(=O)NC[C@@H](NC(=O)[C@H](C)N)C1CCCCC1
9 nM	CC(C)[C@@H]1CC[C@@H](C)C[C@H]1C(=O)NC[C@@H](NC(=O)[C@H](C)N)c1ccccc1 [Example 7]
58 nM	CC(C)[C@@H]1CC[C@@H](C)C[C@H]1C(=O)NC[C@H](Cc1ccccc1)NC(=O)CN [Example 16]
374 nM	CC(C)[C@@H]1CC[C@@H](C)C[C@H]1C(=O)NC[C@H](O)c1ccccc1 [Example 29]
40000 nM	CC(C)[C@@H]1CC[C@@H](C)C[C@H]1C(=O)NCCNC(=O)CNC(=O)OC(C)(C)C [Example 49, tert-butyl (2-((2-((1R,2S,5R)-2-isopropyl-5-methylcyclohexane-1-carboxamido)ethyl)amino)-2-oxoethyl)carbamate]
2.7 nM	CC(C)[C@@H]1CC[C@@H](C)C[C@H]1C(=O)NC[C@@H](NC(=O)[C@H](C)N)c1ccccc1 [Molecule 2]

Same assay, conditions: HEK-293 cells stably transfected with human TRPM8, unit inferred

EC50	Compound
3000 nM	CC(C)[C@@H]1CC[C@@H](C)C[C@H]1C(=O)NC[C@@H](NC(=O)[C@H](C)NC(=O)OC(C)(C)C)c1ccccc1 [Example 43, dihydrochloride]
< 2 nM	CC(C)[C@@H]1CC[C@@H](C)C[C@H]1C(=O)NC[C@@H](NC(=O)CN)c1ccccc1 [Molecule 1]

Tested on: not listed separately
Experiment: Sensory evaluation of coolant activity: panelists brushed with dentifrice and rated cooling intensity
Type: in vivo, human
Settings: dentifrice, up to 12 hours after brushing
Description: Dentifrices were prepared using conventional methods, such as the protocols described in U.S. Pat. No. 8,747,814, which contained no coolant (SAMPLE A) or having a coolant from TABLE 7 (SAMPLES B and C), in a flavor (peppermint) at 10 parts per million (ppm).
Sensory evaluation studies of coolant activity were conducted using a methodology patterned after the techniques described in M.C. Meilgaard, et al., Sensory Evaluation Techniques, 4th Ed. (2007). Five panelists brushed with a dentifrice from TABLE 8, having no coolant (SAMPLE A) or having a coolant from TABLE 7 (SAMPLES B and C), for two minutes, in a flavor (peppermint) at 10 parts per million (ppm). After brush expectoration, panelists then rinsed their mouth with 15 ml of an aqueous rinse and expectorated.

Compound	cooling response over time after brushing (summary of TABLE 9)
CC(C)[C@@H]1CC[C@@H](C)C[C@H]1C(=O)NC[C@@H](NC(=O)[C@@H](C)N)c1ccccc1 [Molecule 17, (1R,2S,5R)-N-((S)-2-((R)-2-Aminopropanamido)-2-phenylethyl)-2-isopropyl-5-methylcyclohexane-1-carboxamide]	high cooling over the course of 12 hours
CC(C)[C@@H]1CC[C@@H](C)C[C@H]1C(=O)NC[C@H](NC(=O)[C@@H](C)N)c1ccccc1 [Molecule 33, (1R,2S ,5R)-N-((R)-2-((R)-2-Aminopropanamido)-2-phenylethyl)-2-isopropyl-5-methylcyclohexane-1-carboxamide]	trailed off after 30 minutes

Tested on: not given
Experiment: not given
Settings: in vivo; cited from earlier work

Compound	cooling threshold (concentration where the cooling effect could be clearly recognized)
CC(C)[C@@H]1CC[C@@H](C)C[C@H]1O [L-menthol]	about 800 ppb
CC(C)[C@@H]1CC[C@@H](C)C[C@@H]1O [Molecule 1-neomenthol, 1-neomenthol]	about 3,000 ppb
CC(C)[C@@H]1CC[C@@H](C)C[C@@H]1O [d-neomenthol]	about 25,000 ppb
